Tested on: C57/BL6J mice
Test: In vivo plasma GLP-1 level-increasing action: plasma active GLP-1 level (ELISA) after oral administration
Details: 10 mg/kg oral; for Significant difference (p < 0.05) vs control group, plasma active GLP-1 level: 30 minutes, Student's t-test; for Plasma active GLP-1 level (relative value to control group as 100), average value: blood 30 minutes after, 0.5% CMC-Na group = 100
Experimental: Seven-week-old male C57/BL6J mice were purchased from CLEA Japan, Inc. for use, and they were subjected to an experiment after 1 week of a habituation period.
After the habituation period, the mice were subjected to 5.5 hours of food deprivation and 2 hours of water deprivation. Thereafter, a cyclic dipeptide dissolved or suspended in a 0.5% CMC-Na aqueous solution in 10 mg/kg was orally administered to each mouse forcibly. After 30 minutes, the blood was collected from the abdominal vena cava under anesthesia, and 1 μL of heparin sodium and 1 μL of 10 mM Sitagliptin phosphate were added to each collected blood, which was then subjected to centrifugation at 8000 rpm for 10 minutes to recover the plasma, and the plasma active GLP-1 level was measured by using the ELISA kit. In the analysis, the active GLP-1 level for a group administered with 0.5% CMC-Na aqueous solution was defined as 100, and relative values thereto were used.

Compound: CSCCC1NC(=O)C(Cc2ccccc2)NC1=O (centres unmarked) [compound 67, Cyclo(Met-Phe)]
- Significant difference (p < 0.05) vs control group, plasma active GLP-1 level (Table 10, Experiment 5): No
- Plasma active GLP-1 level (relative value to control group as 100), average value (Table 10, Experiment 5): 93

Compound: NC(=O)CC1NC(=O)C(Cc2ccccc2)NC1=O (centres unmarked) [compound 64, Cyclo(Asn-Phe)]
- Significant difference (p < 0.05) vs control group, plasma active GLP-1 level (Table 10, Experiment 5): No
- Plasma active GLP-1 level (relative value to control group as 100), average value (Table 10, Experiment 5): 93

Compound: CCC(C)C1NC(=O)CNC1=O (centres unmarked) [compound 156, Cyclo(Ile-Gly)]
- Significant difference (p < 0.05) vs control group, plasma active GLP-1 level (Table 15, Experiment 10): No
- Plasma active GLP-1 level (relative value to control group as 100), average value (Table 15, Experiment 10): 145

Compound: O=C(O)C[C@@H]1NC(=O)[C@H](Cc2ccc(O)cc2)NC1=O [compound 91, Cyclo(Asp-Tyr)]
- Significant difference (p < 0.05) vs control group, plasma active GLP-1 level (Table 12, Experiment 7): No
- Plasma active GLP-1 level (relative value to control group as 100), average value (Table 12, Experiment 7): 181

Compound: O=C1N[C@@H](Cc2ccc(O)cc2)C(=O)N[C@H]1Cc1ccc(O)cc1 [compound 49, Cyclo(Tyr-Tyr)]
- Significant difference (p < 0.05) vs control group, plasma active GLP-1 level (Table 10, Experiment 5): No
- Plasma active GLP-1 level (relative value to control group as 100), average value (Table 10, Experiment 5): 100

Compound: O=C1N[C@@H](CS)C(=O)N[C@H]1CO [compound 180, cyclo-seryl-cysteine]
- Significant difference (p < 0.05) vs control group, plasma active GLP-1 level (Table 15, Experiment 10): Yes
- Plasma active GLP-1 level (relative value to control group as 100), average value (Table 15, Experiment 10): 259

Compound: CC(C)[C@@H]1NC(=O)[C@H](Cc2ccc(O)cc2)NC1=O [compound 88, cyclo-valyl-tyrosine]
- Significant difference (p < 0.05) vs control group, plasma active GLP-1 level (Table 12, Experiment 7): Yes
- Plasma active GLP-1 level (relative value to control group as 100), average value (Table 12, Experiment 7): 385

Compound: O=C(O)CCC1NC(=O)C(Cc2c[nH]c3ccccc23)NC1=O (centres unmarked) [compound 77, Cyclo(Trp-Glu)]
- Significant difference (p < 0.05) vs control group, plasma active GLP-1 level (Table 11, Experiment 6): No
- Plasma active GLP-1 level (relative value to control group as 100), average value (Table 11, Experiment 6): 110

Compound: O=C1NC(Cc2cnc[nH]2)C(=O)NC1Cc1ccc(O)cc1 (centres unmarked) [compound 85, Cyclo(His-Tyr)]
- Significant difference (p < 0.05) vs control group, plasma active GLP-1 level (Table 11, Experiment 6): No
- Plasma active GLP-1 level (relative value to control group as 100), average value (Table 11, Experiment 6): 90

Compound: CC(C)[C@@H]1NC(=O)[C@H](C(C)C)NC1=O [compound 11, Cyclo(Val-Val)]
- Significant difference (p < 0.05) vs control group, plasma active GLP-1 level (Table 9, Experiment 4): No
- Plasma active GLP-1 level (relative value to control group as 100), average value (Table 9, Experiment 4): 100

Compound: CC[C@H](C)[C@@H]1NC(=O)[C@H](CCCCN)NC1=O [compound 150, cyclo-isoleucyl-lysine]
- Significant difference (p < 0.05) vs control group, plasma active GLP-1 level (Table 15, Experiment 10): Yes
- Plasma active GLP-1 level (relative value to control group as 100), average value (Table 15, Experiment 10): 282

Compound: CC(C)[C@@H]1NC(=O)[C@H](CC(N)=O)NC1=O [compound 141, cyclo-asparaginyl-valine]
- Significant difference (p < 0.05) vs control group, plasma active GLP-1 level (Table 15, Experiment 10): Yes
- Plasma active GLP-1 level (relative value to control group as 100), average value (Table 15, Experiment 10): 191

Compound: NC(=O)C[C@@H]1NC(=O)[C@H](Cc2ccc(O)cc2)NC1=O [compound 92, Cyclo(Asn-Tyr)]
- Significant difference (p < 0.05) vs control group, plasma active GLP-1 level (Table 12, Experiment 7): No
- Plasma active GLP-1 level (relative value to control group as 100), average value (Table 12, Experiment 7): 181

Compound: CSCCC1NC(=O)C(CCCCN)NC1=O (centres unmarked) [compound 70, Cyclo(Met-Lys)]
- Significant difference (p < 0.05) vs control group, plasma active GLP-1 level (Table 10, Experiment 5): No
- Plasma active GLP-1 level (relative value to control group as 100), average value (Table 10, Experiment 5): 93

Compound: CSCCC1NC(=O)C(Cc2c[nH]c3ccccc23)NC1=O (centres unmarked) [compound 83, Cyclo(Trp-Met)]
- Significant difference (p < 0.05) vs control group, plasma active GLP-1 level (Table 11, Experiment 6): No
- Plasma active GLP-1 level (relative value to control group as 100), average value (Table 11, Experiment 6): 110

Compound: CCC(C)C1NC(=O)C(C(C)C)NC1=O (centres unmarked) [compound 138, Cyclo(Ile-Val)]
- Significant difference (p < 0.05) vs control group, plasma active GLP-1 level (Table 14, Experiment 9): No
- Plasma active GLP-1 level (relative value to control group as 100), average value (Table 14, Experiment 9): 96

Compound: CC(C)CC1NC(=O)C(CC(=O)O)NC1=O (centres unmarked) [compound 146, cyclo-aspartyl-leucine]
- Significant difference (p < 0.05) vs control group, plasma active GLP-1 level (Table 15, Experiment 10): Yes
- Plasma active GLP-1 level (relative value to control group as 100), average value (Table 15, Experiment 10): 259

Compound: CC(C)[C@@H]1NC(=O)[C@H](Cc2ccccc2)NC1=O [compound 54, Cyclo(Val-Phe)]
- Significant difference (p < 0.05) vs control group, plasma active GLP-1 level (Table 6, Experiment 1): No
- Significant difference (p < 0.05) vs control group, plasma active GLP-1 level (Table 10, Experiment 5): No

Compound: O=C(O)CCC1NC(=O)C(CS)NC1=O (centres unmarked) [compound 179, cyclo-glutamyl-cysteine]
- Significant difference (p < 0.05) vs control group, plasma active GLP-1 level (Table 15, Experiment 10): Yes
- Plasma active GLP-1 level (relative value to control group as 100), average value (Table 15, Experiment 10): 304

Compound: CC(C)C[C@@H]1NC(=O)[C@H](C)NC1=O [compound 44, cyclo-alanyl-leucine]
- Significant difference (p < 0.05) vs control group, plasma active GLP-1 level (Table 8, Experiment 3): Yes
- Plasma active GLP-1 level (relative value to control group as 100), average value (Table 8, Experiment 3): 255

Compound: CC1NC(=O)C(CS)NC1=O (centres unmarked) [compound 177, cyclo-alanyl-cysteine]
- Significant difference (p < 0.05) vs control group, plasma active GLP-1 level (Table 15, Experiment 10): Yes
- Plasma active GLP-1 level (relative value to control group as 100), average value (Table 15, Experiment 10): 282

Compound: CC(C)C1NC(=O)C(Cc2cnc[nH]2)NC1=O (centres unmarked) [compound 108, Cyclo(Val-His)]
- Significant difference (p < 0.05) vs control group, plasma active GLP-1 level (Table 13, Experiment 8): No
- Plasma active GLP-1 level (relative value to control group as 100), average value (Table 13, Experiment 8): 118

Compound: CC[C@H](C)[C@@H]1NC(=O)[C@H]([C@@H](C)CC)NC1=O [compound 14, Cyclo(Ile-Ile)]
- Significant difference (p < 0.05) vs control group, plasma active GLP-1 level (Table 9, Experiment 4): No
- Plasma active GLP-1 level (relative value to control group as 100), average value (Table 9, Experiment 4): 105

Compound: NC(=O)CC1NC(=O)C(Cc2c[nH]c3ccccc23)NC1=O (centres unmarked) [compound 81, Cyclo(Trp-Asn)]
- Significant difference (p < 0.05) vs control group, plasma active GLP-1 level (Table 11, Experiment 6): No
- Plasma active GLP-1 level (relative value to control group as 100), average value (Table 11, Experiment 6): 100

Compound: CSCCC1NC(=O)C(C(C)C)NC1=O (centres unmarked) [compound 160, cyclo-methionyl-valine]
- Significant difference (p < 0.05) vs control group, plasma active GLP-1 level (Table 15, Experiment 10): Yes
- Plasma active GLP-1 level (relative value to control group as 100), average value (Table 15, Experiment 10): 304

Compound: CC(C)CC1NC(=O)C(C(C)O)NC1=O (centres unmarked) [compound 105, Cyclo(Thr-Leu)]
- Significant difference (p < 0.05) vs control group, plasma active GLP-1 level (Table 13, Experiment 8): No
- Plasma active GLP-1 level (relative value to control group as 100), average value (Table 13, Experiment 8): 94

Compound: CC1NC(=O)C(Cc2ccccc2)NC1=O (centres unmarked) [compound 52, Cyclo(Ala-Phe)]
- Significant difference (p < 0.05) vs control group, plasma active GLP-1 level (Table 10, Experiment 5): No
- Plasma active GLP-1 level (relative value to control group as 100), average value (Table 10, Experiment 5): 93

Compound: C[C@@H](O)[C@@H]1NC(=O)[C@H](Cc2c[nH]c3ccccc23)NC1=O [compound 79, Cyclo(Trp-Thr)]
- Significant difference (p < 0.05) vs control group, plasma active GLP-1 level (Table 11, Experiment 6): No
- Plasma active GLP-1 level (relative value to control group as 100), average value (Table 11, Experiment 6): 100

Compound: CSCC[C@@H]1NC(=O)[C@H]([C@H](C)O)NC1=O [compound 169, cyclo-methionyl-threonine]
- Significant difference (p < 0.05) vs control group, plasma active GLP-1 level (Table 15, Experiment 10): Yes
- Plasma active GLP-1 level (relative value to control group as 100), average value (Table 15, Experiment 10): 282

Compound: CCC(C)C1NC(=O)C(Cc2ccccc2)NC1=O (centres unmarked) [compound 55, Cyclo(Ile-Phe)]
- Significant difference (p < 0.05) vs control group, plasma active GLP-1 level (Table 10, Experiment 5): No
- Plasma active GLP-1 level (relative value to control group as 100), average value (Table 10, Experiment 5): 90

Compound: C[C@@H](O)[C@@H]1NC(=O)[C@H](Cc2ccc(O)cc2)NC1=O [compound 90, cyclo-threonyl-tyrosine]
- Significant difference (p < 0.05) vs control group, plasma active GLP-1 level (Table 12, Experiment 7): Yes
- Plasma active GLP-1 level (relative value to control group as 100), average value (Table 12, Experiment 7): 466

Compound: CC(C)[C@@H]1NC(=O)[C@H](Cc2c[nH]c3ccccc23)NC1=O [compound 61, Cyclo(Trp-Val)]
- Significant difference (p < 0.05) vs control group, plasma active GLP-1 level (Table 8, Experiment 3): No
- Plasma active GLP-1 level (relative value to control group as 100), average value (Table 8, Experiment 3): 117

Compound: O=C1CNC(=O)C(CS)N1 (centres unmarked) [compound 178, cyclo-glycyl-cysteine]
- Significant difference (p < 0.05) vs control group, plasma active GLP-1 level (Table 15, Experiment 10): Yes
- Plasma active GLP-1 level (relative value to control group as 100), average value (Table 15, Experiment 10): 282

Compound: CSCCC1NC(=O)C(Cc2cnc[nH]2)NC1=O (centres unmarked) [compound 120, cyclo-methionyl-histidine]
- Significant difference (p < 0.05) vs control group, plasma active GLP-1 level (Table 13, Experiment 8): Yes
- Plasma active GLP-1 level (relative value to control group as 100), average value (Table 13, Experiment 8): 154

Reference: patent publication US20170143701A1, “CARBOHYDRATE METABOLISM-AMELIORATING AGENT” (SUNTORY HOLDINGS LIMITED, priority 2014, published 2017)
